Like-named read-outs stand apart in the source and are kept apart here.
Key:
progesterone receptor = progesterone receptor (Homo sapiens (Human), UniProt P06401); test: Progesterone receptor binding test; settings: for Progesterone receptor (PR) Competition factor: CF 1 = affinity of progesterone, CF > 1 lower affinity; for IC50: displacement of 3H-progesterone, cytosol from PR-expressing Hi5 insect cells; for CF PR/CF MR: ratio of competition factors CF(PR) and CF(MR)
Method: 1. Progesterone Receptor Binding Test:
Using cytosol from progesterone receptor-expressing insect cells (Hi5), competitive binding to the progesterone receptor was determined from the ability to displace ^3H-progesterone as reference substance from the receptor.

[1] = molecular target: T1, mineralocorticoid receptor (Homo sapiens (Human), UniProt P08235); test: Mineralocorticoid receptor binding test; settings: reference 3H-aldosterone, Hi5 cytosol
T1 sequence (P08235 whole entry): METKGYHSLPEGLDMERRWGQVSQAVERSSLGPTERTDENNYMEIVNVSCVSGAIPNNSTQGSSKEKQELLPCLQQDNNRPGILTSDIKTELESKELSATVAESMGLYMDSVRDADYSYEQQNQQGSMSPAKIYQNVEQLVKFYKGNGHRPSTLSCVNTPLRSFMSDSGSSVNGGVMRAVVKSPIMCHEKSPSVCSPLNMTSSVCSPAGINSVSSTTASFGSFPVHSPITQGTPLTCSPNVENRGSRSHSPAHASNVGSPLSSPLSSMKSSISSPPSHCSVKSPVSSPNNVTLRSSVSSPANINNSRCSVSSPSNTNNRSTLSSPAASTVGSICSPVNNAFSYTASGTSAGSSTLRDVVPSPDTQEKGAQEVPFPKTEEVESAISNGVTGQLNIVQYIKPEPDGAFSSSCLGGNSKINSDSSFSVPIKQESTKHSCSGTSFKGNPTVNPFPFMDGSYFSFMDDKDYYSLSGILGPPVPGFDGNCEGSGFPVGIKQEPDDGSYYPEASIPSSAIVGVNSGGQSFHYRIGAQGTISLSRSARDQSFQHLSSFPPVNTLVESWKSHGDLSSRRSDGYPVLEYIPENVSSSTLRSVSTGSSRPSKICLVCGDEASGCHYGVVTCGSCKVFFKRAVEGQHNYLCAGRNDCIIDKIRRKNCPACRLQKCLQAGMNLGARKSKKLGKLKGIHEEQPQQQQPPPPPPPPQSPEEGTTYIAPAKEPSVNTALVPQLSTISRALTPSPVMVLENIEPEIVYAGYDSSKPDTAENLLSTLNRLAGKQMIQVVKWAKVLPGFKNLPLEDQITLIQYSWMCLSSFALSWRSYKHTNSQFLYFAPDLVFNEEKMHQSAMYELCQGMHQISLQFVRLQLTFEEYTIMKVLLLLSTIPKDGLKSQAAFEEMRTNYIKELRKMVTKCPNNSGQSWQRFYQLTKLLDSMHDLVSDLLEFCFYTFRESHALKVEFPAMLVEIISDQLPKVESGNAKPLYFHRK
Description: 2. Mineralocorticoid Receptor Binding Test:

[2] = molecular target: fusion protein from the PR-ligand-binding domain and a Gal4-transactivation domain (Homo sapiens, UniProt P06401); test: Progestational action by transactivation test (CHO K1 reporter cells); type: cell-based; settings: CHO K1 luciferase reporter, 16 hours incubation; for EC50: read-out: Progesterone receptor Agonism EC50; for Emax: read-out: Progesterone receptor Agonism efficacy
fusion protein from the PR-ligand-binding domain and a Gal4-transactivation domain, sequence (P06401 679-913): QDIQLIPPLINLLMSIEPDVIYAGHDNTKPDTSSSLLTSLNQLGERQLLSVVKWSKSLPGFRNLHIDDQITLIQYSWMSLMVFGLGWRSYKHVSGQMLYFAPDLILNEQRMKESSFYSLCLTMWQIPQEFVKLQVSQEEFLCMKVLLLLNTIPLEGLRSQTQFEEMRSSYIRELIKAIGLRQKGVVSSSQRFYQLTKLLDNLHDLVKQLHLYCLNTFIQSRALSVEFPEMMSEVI
Method: 4. Determination of Progestational Action by Means of Transactivation Tests:
The test compounds were added eight hours later, and the cells were incubated with the compounds for 16 hours. The tests were carried out in triplicate. At the end of incubation the medium containing the effector was removed and replaced with lysis buffer. After luciferase assay substrate (Promega, #E1501) had been added, the 96-well plates were then put in a microplate luminometer (Pherastar, BMG Labtech), and the luminescence was measured. The IC50 values were evaluated using software for calculating dose-effect relations.

[3] = molecular target: T1, mineralocorticoid receptor; test: Antimineralocorticoid action by transactivation test (MDCK reporter cells); type: cell-based; settings: for IC50: read-out: Mineralocorticoid receptor Antagonism IC50; for Emax: read-out: Mineralocorticoid receptor Antagonism efficacy; for Mineralocorticoid receptor Antagonism (result in words): cell spans IC50 and efficacy
Method: 5. Determination of Antimineralocorticoid Action by Means of Transactivation Tests:
The antimineralocorticoid activity of the test substances was determined as for the transactivation tests described above.
The following modifications were undertaken: In this case reporter cell lines were used (MDCK cells) that express the human mineralocorticoid receptor, and transiently contain a reporter construct that contains luciferase under the control of a steroid hormone-responsive promoter.

androgen receptor [4] = molecular target: T2, androgen receptor (Homo sapiens (Human), UniProt P10275); test: Androgenic/antiandrogenic action by transactivation test (PC3 reporter cells); type: cell-based; settings: for IC50: 0.05 nM R1881, read-out: Androgen receptor Antagonism IC50; for EC50: read-out: Androgen receptor Agonism EC50
T2 sequence (P10275 whole entry, species assumed): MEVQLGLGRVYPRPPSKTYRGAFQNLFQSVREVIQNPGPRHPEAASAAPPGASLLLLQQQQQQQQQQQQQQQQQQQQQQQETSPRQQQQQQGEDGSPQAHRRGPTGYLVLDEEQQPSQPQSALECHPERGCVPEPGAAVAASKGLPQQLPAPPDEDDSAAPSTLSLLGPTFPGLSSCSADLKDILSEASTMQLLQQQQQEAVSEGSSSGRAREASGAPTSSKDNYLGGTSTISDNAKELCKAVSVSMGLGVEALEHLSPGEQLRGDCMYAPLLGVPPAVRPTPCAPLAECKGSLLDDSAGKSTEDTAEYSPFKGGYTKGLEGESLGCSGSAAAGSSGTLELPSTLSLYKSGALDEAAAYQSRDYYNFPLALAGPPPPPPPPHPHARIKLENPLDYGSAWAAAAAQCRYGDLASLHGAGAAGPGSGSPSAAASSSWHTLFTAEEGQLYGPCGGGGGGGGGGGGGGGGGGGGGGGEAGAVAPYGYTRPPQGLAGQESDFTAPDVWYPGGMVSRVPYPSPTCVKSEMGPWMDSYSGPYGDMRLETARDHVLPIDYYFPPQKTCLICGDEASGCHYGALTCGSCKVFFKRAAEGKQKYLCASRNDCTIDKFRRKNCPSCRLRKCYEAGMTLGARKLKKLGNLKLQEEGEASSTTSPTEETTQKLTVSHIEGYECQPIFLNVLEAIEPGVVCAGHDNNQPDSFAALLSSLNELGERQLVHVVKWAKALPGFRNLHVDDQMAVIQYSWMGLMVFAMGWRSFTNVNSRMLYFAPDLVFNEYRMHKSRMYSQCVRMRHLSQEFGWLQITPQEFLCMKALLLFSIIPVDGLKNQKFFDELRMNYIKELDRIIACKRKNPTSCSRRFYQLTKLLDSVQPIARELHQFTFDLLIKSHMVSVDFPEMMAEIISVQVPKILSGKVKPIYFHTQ
Method: 6. Determination of Androgenic/Antiandrogenic Action by Means of Transactivation Tests:
The androgenic/antiandrogenic action of the test substances was determined as for the transactivation tests described above.
The following modifications were made: In this case reporter cell lines were used (PC3 cells) that express the androgen receptor, and a reporter construct that contains luciferase under the control of a steroid hormone-responsive promoter.
For determination of the antiandrogenic efficacy, 0.05 nM R1881 was added to the cells, in order to achieve almost maximum stimulation of the reporter gene.

androgen receptor [5] = molecular target: T2, androgen receptor; test: Androgen receptor binding test; settings: reference 3H-testosterone, Hi5 cytosol; for IC50: read-out: Androgen receptor IC50
Method: Androgen Receptor Binding Test:
The test was carried out as in 1., with the following modifications: cytosol from androgen receptor-expressing insect cells (Hi5) was used, and the reference substance was ^3H-testosterone.

[6] = MDCK reporter cells, 1 nM aldosterone
[7] = 0.05 nM R1881, read-out: Androgen receptor Antagonism efficacy
[8] = read-out: Androgen receptor Agonism efficacy

progesterone receptor, sequence (P06401 whole entry, species assumed): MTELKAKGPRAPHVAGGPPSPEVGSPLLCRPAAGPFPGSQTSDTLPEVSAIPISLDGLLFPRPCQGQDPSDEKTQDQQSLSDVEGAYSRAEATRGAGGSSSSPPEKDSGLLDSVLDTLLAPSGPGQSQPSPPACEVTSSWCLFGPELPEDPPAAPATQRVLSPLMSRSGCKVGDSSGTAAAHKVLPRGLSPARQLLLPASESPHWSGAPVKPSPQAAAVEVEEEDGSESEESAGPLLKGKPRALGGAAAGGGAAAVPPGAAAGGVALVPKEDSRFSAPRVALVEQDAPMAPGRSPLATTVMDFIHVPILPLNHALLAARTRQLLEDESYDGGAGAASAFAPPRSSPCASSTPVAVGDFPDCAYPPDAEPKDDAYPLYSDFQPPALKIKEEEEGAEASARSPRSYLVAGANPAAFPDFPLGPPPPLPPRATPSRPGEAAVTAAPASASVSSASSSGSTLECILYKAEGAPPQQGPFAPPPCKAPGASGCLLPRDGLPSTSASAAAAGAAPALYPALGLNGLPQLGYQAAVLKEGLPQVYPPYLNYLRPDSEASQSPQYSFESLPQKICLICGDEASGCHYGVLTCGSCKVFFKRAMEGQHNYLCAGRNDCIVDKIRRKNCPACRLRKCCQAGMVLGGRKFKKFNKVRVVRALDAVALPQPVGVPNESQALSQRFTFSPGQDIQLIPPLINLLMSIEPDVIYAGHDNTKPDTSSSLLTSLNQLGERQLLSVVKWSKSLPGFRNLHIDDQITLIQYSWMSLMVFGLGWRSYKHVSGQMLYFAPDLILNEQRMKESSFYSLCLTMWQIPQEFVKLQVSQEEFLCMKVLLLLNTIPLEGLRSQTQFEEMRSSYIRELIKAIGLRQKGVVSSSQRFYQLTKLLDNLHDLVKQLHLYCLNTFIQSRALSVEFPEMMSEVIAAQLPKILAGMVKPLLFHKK

SMILES: C[C@@H]1CC2=CC(=O)CC[C@@H]2[C@H]2CC[C@@]3(C)[C@@H](CC[C@@]34C=CCO4)[C@@H]21 [Example 3, 7α-Methyl-17α-(1′-propenyl)-17β-3′-oxidoestra-4-en-3-one]
- Progesterone receptor (PR) Competition factor (progesterone receptor): 2.41
- IC50 (progesterone receptor): 62 nM
- Mineralocorticoid receptor (MR) Competition factor [1]: 3.2
- EC50 [2]: 3.7 nM
- Emax [2]: 61.6%
- IC50 [3, 6]: 17 nM
- Emax [3, 6]: 112%
- Emax (androgen receptor [4]; [7]): 5%
- Emax (androgen receptor [4]; [8]): 80.2%

SMILES: C=C[C@@H]1CC2=CC(=O)CC[C@@H]2[C@H]2CC[C@@]3(C)[C@@H](CC[C@@]34C=CCO4)[C@@H]21 [Example 5, 17α-(1′-Propenyl)-7α-vinyl-17β-3′-oxidoestra-4-en-3-one]
- Progesterone receptor (PR) Competition factor (progesterone receptor): 2.46
- CF PR/CF MR (progesterone receptor): 0.95
- Mineralocorticoid receptor (MR) Competition factor [1]: 2.6
- EC50 [2]: 1.2 nM
- Emax [2]: 21.9%
- IC50 [3, 6]: 57 nM
- Emax [3, 6]: 121%
- IC50 (androgen receptor [4]): 1000 nM
- Emax (androgen receptor [4]; [7]): 5%
- EC50 (androgen receptor [4]): 3.7 nM
- Emax (androgen receptor [4]; [8]): 86.8%
- IC50 (androgen receptor [5]): 53 nM
- Androgen receptor Competition factor (androgen receptor [5]): 2.2

SMILES: CC[C@@H]1CC2=CC(=O)CC[C@@H]2[C@H]2CC[C@@]3(C)[C@@H](CC[C@@]34C=CCO4)[C@H]12 [Example 4, 7α-Ethyl-17α-(1′-propenyl)-17β-3′-oxidoestra-4-en-3-one]
- Progesterone receptor (PR) Competition factor (progesterone receptor): 11.75
- IC50 (progesterone receptor): 130 nM
- CF PR/CF MR (progesterone receptor): 2.87
- Mineralocorticoid receptor (MR) Competition factor [1]: 4.1
- EC50 [2]: 67 nM
- Emax [2]: 65.1%
- IC50 [3, 6]: 310 nM
- Emax [3, 6]: 82.2%
- IC50 (androgen receptor [4]): 1000 nM
- Emax (androgen receptor [4]; [7]): 5%
- EC50 (androgen receptor [4]): 7.3 nM
- Emax (androgen receptor [4]; [8]): 62.3%
- IC50 (androgen receptor [5]): 64 nM
- Androgen receptor Competition factor (androgen receptor [5]): 2.9

SMILES: CC[C@]12CC[C@H]3[C@@H](CCC4=CC(=O)CC[C@@H]43)[C@@H]1CC[C@@]21C=CCO1 (stereo in doubt) [Example 7, 18-Methyl-17α-(1′-propenyl)-17β-3′-oxidoestra-4-en-3-one]
- Progesterone receptor (PR) Competition factor (progesterone receptor): 0.19
- IC50 (progesterone receptor): 5.3 nM
- CF PR/CF MR (progesterone receptor): 0.12
- Mineralocorticoid receptor (MR) Competition factor [1]: 1.6
- IC50 [3, 6]: 5 nM
- Emax [3, 6]: 87.8%
- IC50 (androgen receptor [4]): 160 nM
- Emax (androgen receptor [4]; [7]): 25.4%
- EC50 (androgen receptor [4]): 3.7 nM
- Emax (androgen receptor [4]; [8]): 78.3%
- Androgen receptor Competition factor (androgen receptor [5]): 0.5

SMILES: CC[C@]12CC[C@H]3[C@@H]([C@H](C4CC4)CC4=CC(=O)CC[C@@H]43)[C@@H]1CC[C@@]21C=CCO1 [Example 12, 7α-Cyclopropyl-18-methyl-17α-(1′-propenyl)-17β-3′-oxidoestra-4-en-3-one]
- Progesterone receptor (PR) Competition factor (progesterone receptor): 8.51
- IC50 (progesterone receptor): 210 nM
- Mineralocorticoid receptor (MR) Competition factor [1]: 2.0
- EC50 [2]: 55 nM
- Emax [2]: 30.9%
- Mineralocorticoid receptor Antagonism (result in words) [3, 6]: Partial agonist
- Emax (androgen receptor [4]; [7]): 5%
- Emax (androgen receptor [4]; [8]): 70.1%

SMILES: C[C@]12CC[C@H]3[C@@H](CCC4=CC(=O)CC[C@@H]43)[C@@H]1CC1(CC1)[C@@]21C=CCO1 (stereo in doubt) [Example 6, 16,16-Ethylene-17α-(1′-propenyl)-17β-3′-oxidoestra-4-en-3-one]
- Progesterone receptor (PR) Competition factor (progesterone receptor): 3.41
- IC50 (progesterone receptor): 110 nM
- Mineralocorticoid receptor (MR) Competition factor [1]: 22.9
- IC50 [3, 6]: 1000 nM
- Emax [3, 6]: 65.1%
- Emax (androgen receptor [4]; [7]): 70.1%
- Emax (androgen receptor [4]; [8]): 49.7%

SMILES: CC[C@]12CC[C@H]3[C@@H]([C@H](C)CC4=CC(=O)CC[C@@H]43)[C@@H]1CC[C@@]21C=CCO1 [Example 9, 7α,18-Dimethyl-17α-(1′-propenyl)-17β-3′-oxidoestra-4-en-3-one]
- Progesterone receptor (PR) Competition factor (progesterone receptor): 3.26
- IC50 (progesterone receptor): 77 nM
- CF PR/CF MR (progesterone receptor): 2.04
- Mineralocorticoid receptor (MR) Competition factor [1]: 1.6
- EC50 [2]: 7.1 nM
- Emax [2]: 55.9%
- IC50 [3, 6]: 38 nM
- Emax [3, 6]: 105%
- IC50 (androgen receptor [4]): 1000 nM
- Emax (androgen receptor [4]; [7]): 5%
- EC50 (androgen receptor [4]): 3 nM
- Emax (androgen receptor [4]; [8]): 77.9%
- IC50 (androgen receptor [5]): 81 nM
- Androgen receptor Competition factor (androgen receptor [5]): 3.0

SMILES: C[C@]12CCC(=O)C=C1[C@@H]1C[C@@H]1[C@H]1[C@@H]3[C@@H]4C[C@@H]4[C@@]4(CCC(=O)O4)[C@@]3(C)CC[C@@H]12 [A, 6β,7β-15β,16β-dimethylene-3-oxo-17-pregn-4-ene-21,17β-carbolactone, reference compound]
- Progesterone receptor (PR) Competition factor (progesterone receptor): 2.7
- Mineralocorticoid receptor (MR) Competition factor [1]: 0.5
- Emax [2]: 72.2%
- Emax ([3]; MDCK): 64.1%

SMILES: CC[C@@H]1CC2=CC(=O)CC[C@@H]2[C@H]2CC[C@@]3(CC)[C@@H](CC[C@@]34C=CCO4)[C@H]12 [Example 10, 7α-Ethyl-18-methyl-17α-(1′-propenyl)-17β-3′-oxidoestra-4-en-3-one]
- Progesterone receptor (PR) Competition factor (progesterone receptor): 7.03
- IC50 (progesterone receptor): 170 nM
- CF PR/CF MR (progesterone receptor): 6.39
- Mineralocorticoid receptor (MR) Competition factor [1]: 1.1
- EC50 [2]: 780 nM
- Emax [2]: 26.4%
- IC50 [3, 6]: 850 nM
- Emax [3, 6]: 39.2%
- IC50 (androgen receptor [4]): 1000 nM
- Emax (androgen receptor [4]; [7]): 5%
- EC50 (androgen receptor [4]): 9.4 nM
- Emax (androgen receptor [4]; [8]): 70.4%
- IC50 (androgen receptor [5]): 110 nM
- Androgen receptor Competition factor (androgen receptor [5]): 4.1

SMILES: C=C[C@@H]1CC2=CC(=O)CC[C@@H]2[C@H]2CC[C@@]3(CC)[C@@H](CC[C@@]34C=CCO4)[C@@H]21 [Example 11, 7α-Vinyl-18-methyl-17α-(1′-propenyl)-17β-3′-oxidoestra-4-en-3-one]
- Progesterone receptor (PR) Competition factor (progesterone receptor): 6.24
- IC50 (progesterone receptor): 170 nM
- CF PR/CF MR (progesterone receptor): 4.80
- Mineralocorticoid receptor (MR) Competition factor [1]: 1.3
- EC50 [2]: 100 nM
- Emax [2]: 29.5%
- Mineralocorticoid receptor Antagonism (result in words) [3, 6]: Partial agonist
- IC50 (androgen receptor [4]): 1000 nM
- Emax (androgen receptor [4]; [7]): 5%
- EC50 (androgen receptor [4]): 5.3 nM
- Emax (androgen receptor [4]; [8]): 88.8%
- IC50 (androgen receptor [5]): 1300 nM
- Androgen receptor Competition factor (androgen receptor [5]): 4.7

SMILES: C[C@]12CC[C@H]3[C@@H](CCC4=CC(=O)CC[C@@H]43)[C@@H]1CC[C@@]21C=CCO1 (stereo in doubt) [Example 1, 17α-(1′-Propenyl)-17β-3′-oxidoestra-4-en-3-one]
- Progesterone receptor (PR) Competition factor (progesterone receptor): 0.46
- IC50 (progesterone receptor): 3 nM
- Mineralocorticoid receptor (MR) Competition factor [1]: 2.6
- IC50 [3, 6]: 31 nM
- Emax [3, 6]: 83%
- Emax (androgen receptor [4]; [7]): 29%
- Emax (androgen receptor [4]; [8]): 62.7%

SMILES: CC[C@]12CC[C@H]3[C@@H](C=CC4=CC(=O)CC[C@@H]43)[C@@H]1CC[C@@]21C=CCO1 (stereo in doubt) [Example 8, 18-Methyl-17α-(1′-propenyl)-17β-3′-oxidoestra-4,6-dien-3-one]
- Progesterone receptor (PR) Competition factor (progesterone receptor): 1.78
- Mineralocorticoid receptor (MR) Competition factor [1]: 1.2
- EC50 [2]: 1.1 nM
- Emax [2]: 12.3%
- IC50 [3, 6]: 66 nM
- Emax [3, 6]: 112%
- Emax (androgen receptor [4]; [7]): 5%
- Emax (androgen receptor [4]; [8]): 62%

SMILES: CC[C@]12CC[C@H]3[C@@H](C[C@@H](CO)C4=CC(=O)CC[C@@H]43)[C@@H]1CC[C@@]21C=CCO1 [Example 13, 6β-Hydroxymethylene-18-methyl-17α-(1′-propenyl)-17β-3′-oxidoestra-4-en-3-one]
- Progesterone receptor (PR) Competition factor (progesterone receptor): 88.59
- IC50 (progesterone receptor): 2100 nM
- CF PR/CF MR (progesterone receptor): 40.27
- Mineralocorticoid receptor (MR) Competition factor [1]: 2.2
- EC50 [2]: 1000 nM
- Emax [2]: 5%
- IC50 [3, 6]: 110 nM
- Emax [3, 6]: 98.8%
- IC50 (androgen receptor [4]): 140 nM
- Emax (androgen receptor [4]; [7]): 48.1%
- EC50 (androgen receptor [4]): 1000 nM
- Emax (androgen receptor [4]; [8]): 5%
- IC50 (androgen receptor [5]): 1000 nM
- Androgen receptor Competition factor (androgen receptor [5]): 1000.0

SMILES: C[C@]12CC[C@H]3[C@@H](C=CC4=CC(=O)CC[C@@H]43)[C@@H]1CC[C@@]21C=CCO1 (stereo in doubt) [Example 2, 17α-(1′-Propenyl)-17β-3′-oxidoestra-4,6-dien-3-one]
- Progesterone receptor (PR) Competition factor (progesterone receptor): 2.29
- IC50 (progesterone receptor): 55.5 nM
- Mineralocorticoid receptor (MR) Competition factor [1]: 8.9
- EC50 [2]: 2.9 nM
- Emax [2]: 36.4%
- IC50 [3, 6]: 92 nM
- Emax [3, 6]: 136%
- Emax (androgen receptor [4]; [7]): 34.4%
- Emax (androgen receptor [4]; [8]): 31.9%

Source: US9034856B2, “17-(1′propenyl)-17-3′-oxidoestra-4-en-3-one derivative, use thereof, and medicament containing said derivative” (Bayer Intellectual Property GmbH, priority 2007, dated 2015)
